Test results taken from publication PMC10552397 (Cell Communication and Signaling : CCS, 2023).

Assays:
[1] = target: T1, EFEMP1 (Homo sapiens, UniProt Q12805); assay: TPP-TR/RTSA, EFEMP1; assay type: binding
T1 construct: endogenous in cells; host or cells: HeLa wt cells
T1 sequence (Q12805 18-493): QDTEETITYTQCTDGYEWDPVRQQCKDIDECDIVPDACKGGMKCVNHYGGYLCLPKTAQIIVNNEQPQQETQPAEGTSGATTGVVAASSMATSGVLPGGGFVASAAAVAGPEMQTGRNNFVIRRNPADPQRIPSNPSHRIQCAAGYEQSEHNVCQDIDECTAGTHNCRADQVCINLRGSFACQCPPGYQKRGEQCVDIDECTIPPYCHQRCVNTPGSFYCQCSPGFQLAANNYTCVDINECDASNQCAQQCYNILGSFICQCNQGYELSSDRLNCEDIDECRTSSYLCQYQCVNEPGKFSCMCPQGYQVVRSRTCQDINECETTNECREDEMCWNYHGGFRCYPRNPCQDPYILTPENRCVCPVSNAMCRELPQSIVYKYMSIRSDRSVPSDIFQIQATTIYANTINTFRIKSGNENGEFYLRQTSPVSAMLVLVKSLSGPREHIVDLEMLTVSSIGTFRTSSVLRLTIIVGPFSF
Protocol: TPP was performed essentially as described, but with major modifications to the TMT labeling sets and statistical data analysis for TPP-TR.
Adherent cells were washed in the dish once with DPBS and harvested by Trypsin–EDTA (0.25%, Thermo Fisher Scientific, Waltham, MA, USA, #25,200,056) treatment. […]
After temperature treatment, samples were supplemented with lysis buffer (final concentrations: 0.36 U/µL benzonase, 1.5 mM MgCl2, 1 mM Na3VO4, 10 mM NaF, 2.5 mM Na4P2O7, 0.8% w/v NP-40) for 1 h on ice. […] The total protein concentration of the resulting cell extracts containing the fraction of soluble, non-denatured proteins was determined (Pierce 660 nm Protein Assay, BSA as standard). […] The two (37 °C or 50 °C) x ten (concentrations) x three (replicates) = 60 TPP-CCR samples and two (treatment and control) x ten (temperatures) x three (replicates) = 60 TPP-TR samples were analyzed by LC–MS/MS. GRASP55 was additionally quantified from the TPP-TR samples by immunoblotting as described in the respective section.
For TPP-CCR, SP3 was performed as described with slight modifications to the original protocol using on average 5 µg total protein per sample and resulting in theoretically 5 µg peptides in 22 µL 50 mM triethylammonium bicarbonate per sample. […] This volume was calculated such that the lowest two temperature samples (36.5 °C and 41.2 °C) contained 10 µg total protein on average. […]

[2] = tested on: HeLa wt cells; assay: Immunofluorescence of GRASP55 and LC3; assay type: cell-based; settings: 6 h
Protocol: For immunofluorescence microscopy, HeLa cells were seeded on glass coverslips in 24-well plates. After treatment, cells were fixed in 4% paraformaldehyde for 15 min on ice, quenched with 50 mM NH4Cl for 15 min and permeabilized with 50 µg/mL digitonin (Sigma-Aldrich, St. Louis, MO, USA, #D141) for 5 min. Fixed samples were blocked with 3% BSA (Roth, Karlsruhe, Germany, #8076) for 30 min or overnight and incubated with primary antibodies diluted in 3% BSA for 2 h. Samples were then washed three times with DPBS, incubated with the appropriate secondary antibodies diluted in 3% BSA for 30 min and washed three times with DPBS. Afterwards, cells were embedded in ProLong Glass Antifade Mountant (Thermo Fisher Scientific, Waltham, MA, USA, #P36980) containing 1 µg/mL DAPI (Roth, Karlsruhe, Germany, #6335.1). Images were recorded with an Axio Observer 7 fluorescence microscope (Carl Zeiss Microscopy, Oberkochen, Germany) using a 40x/1,4 Oil DIC M27 Plan-Apochromat objective (Carl Zeiss Microscopy, Oberkochen, Germany) and an ApoTome 2 (Carl Zeiss Microscopy, Oberkochen, Germany).

## CCCCCC1=C/C(=C/c2[nH]c(-c3ccc[nH]3)cc2OC)N=C1C [Prodigiosin, prodigiosin]
[1]; 100 nM vs DMSO, 6 h, HeLa wt, read-out: Mean_dTm
  ΔTm at 0.1 µM: 1.55 °C
[1]; RTSA distance score
  distancescore: 13.326
[2]; BafA1 10 nM
  co-localization of LC3 and GRASP55: highly significant, dose-dependent increase
  number of LC3 dots: increased dose-dependently
[2]; all concentrations, vs DMSO
  mean area of GRASP55 dots: significantly increased
